Tests used:
[1] = system: Breast cancer cell lines; assay: NCI cytotoxicity (SRB, 48 h), breast panel; format: cell-based, human; settings: Breast panel average
Method: (§1) The C8-linked quinazolinone-PBD hybrid (5d) has been tested against sixty human tumour cell lines derived from nine cancer types (leukemia, non-small cell lung cancer, colon cancer, CNS cancer, melanoma, ovarian cancer, renal cancer, prostate cancer and breast cancer) as per NCI protocol. For each compound, dose response curves for individual cell lines have been measured at a minimum of five concentrations at 10 fold dilutions. A protocol of 48 h continuous drug exposure has been used, and a sulforhodamine B (SRB) protein assay was used to estimate cell viability or growth. The concentration for 50% cell growth inhibition (GI50), total cell growth inhibition (TGI, 0% growth) and 50% cell death (LC50, […]) compared with the control has been calculated (Table-1). Compound 5d has been evaluated for their in vitro cytotoxicity in sixty cell lines from nine human cancer types of lung (Hop-62, NCI-H226, NCI-H522), leukemia (K-562, SR), colon (HCT-116, HCT-15, HCC-2998), CNS(SF-539), melanoma (SK-MEL-5, UACC-62, M14), ovarian (IGROV1), renal (A498), prostate (PC3) breast (BT-549, MDA-MB-435, HS578T) origin. The results are expressed as percent of cell growth determined relative to that of untreated control cells (Table 2). The representative compound 5d has shown significant cytotoxicity against some cancer cell lines.

[2] = system: SK-MEL-2; assay: NCI cytotoxicity (SRB, 48 h), SK-MEL-2; format: cell-based, human; settings: SK-MEL-2, melanoma
Method: as §1

[3] = system: Non-small cell lung cancer cell lines; assay: NCI cytotoxicity (SRB, 48 h), non-small cell lung panel; format: cell-based, human; settings: Non-small-cell lung panel average
Method: as §1

[4] = system: NCI-H522; assay: NCI cytotoxicity (SRB, 48 h), NCI-H522; format: cell-based, human; settings: NCI-H522, non-small cell lung
Method: as §1

[5] = system: A549/ATCC; assay: NCI cytotoxicity (SRB, 48 h), A549/ATCC; format: cell-based, human; settings: non-small cell lung
Method: as §1

[6] = system: MOLT-4; assay: NCI cytotoxicity (SRB, 48 h), MOLT-4; format: cell-based, human; settings: MOLT-4, leukemia
Method: as §1

[7] = system: HOP-92; assay: NCI cytotoxicity (SRB, 48 h), HOP-92; format: cell-based, human; settings: HOP-92, non-small cell lung
Method: as §1

[8] = system: Colon cancer cell lines; assay: NCI cytotoxicity (SRB, 48 h), colon panel; format: cell-based, human; settings: Colon panel average
Method: as §1

[9] = system: NCI-H23; assay: NCI cytotoxicity (SRB, 48 h), NCI-H23; format: cell-based, human; settings: NCI-H23, non-small cell lung
Method: as §1

[10] = system: Leukemia cell lines; assay: NCI cytotoxicity (SRB, 48 h), leukemia panel; format: cell-based, human; settings: Leukemia panel average
Method: as §1

[11] = system: UACC-257; assay: NCI cytotoxicity (SRB, 48 h), UACC-257; format: cell-based, human; settings: UACC-257, melanoma
Method: as §1

[12] = system: sixty human tumour cell lines; assay: NCI in vitro cytotoxicity screen (SRB, 48 h), all cell lines; format: cell-based; settings: 48 h exposure
Method: as §1

[13] = system: SK-MEL-28; assay: NCI cytotoxicity (SRB, 48 h), SK-MEL-28; format: cell-based, human; settings: SK-MEL-28, melanoma
Method: as §1

[14] = system: HT29; assay: NCI cytotoxicity (SRB, 48 h), HT29; format: cell-based, human; settings: HT29, colon
Method: as §1

[15] = system: OVCAR-8; assay: NCI cytotoxicity (SRB, 48 h), OVCAR-8; format: cell-based, human; settings: OVCAR-8, ovarian
Method: as §1

[16] = system: HCC-2998; assay: NCI cytotoxicity (SRB, 48 h), HCC-2998; format: cell-based, human; settings: HCC-2998, colon
Method: as §1

[17] = system: BT-549; assay: NCI cytotoxicity (SRB, 48 h), BT-549; format: cell-based, human; settings: BT-549, breast
Method: as §1

[18] = system: MALME-3M; assay: NCI cytotoxicity (SRB, 48 h), MALME-3M; format: cell-based, human; settings: melanoma
Method: as §1

[19] = system: CCRF-CEM; assay: NCI cytotoxicity (SRB, 48 h), CCRF-CEM; format: cell-based, human; settings: leukemia
Method: as §1

[20] = system: Prostate cancer cell lines; assay: NCI cytotoxicity (SRB, 48 h), prostate panel; format: cell-based, human; settings: Prostate panel average
Method: as §1

[21] = system: HCT-116; assay: NCI cytotoxicity (SRB, 48 h), HCT-116; format: cell-based, human; settings: HCT-116, colon
Method: as §1

[22] = system: SF-539; assay: NCI cytotoxicity (SRB, 48 h), SF-539; format: cell-based, human; settings: SF-539, CNS
Method: as §1

[23] = system: NCI-H322M; assay: NCI cytotoxicity (SRB, 48 h), NCI-H322M; format: cell-based, human; settings: non-small cell lung
Method: as §1

[24] = system: Ovarian cancer cell lines; assay: NCI cytotoxicity (SRB, 48 h), ovarian panel; format: cell-based, human; settings: Ovarian panel average
Method: as §1

[25] = system: duplex-form calf thymus DNA (CT-DNA); assay: Thermal denaturation studies with calf thymus DNA; format: binding; settings: [PBD]:[DNA] molar ratio 1:5, CT-DNA 100 μM, ligand 20 μM, pH 7.00
Method: Compounds have been subjected to thermal denaturation studies with duplex-form calf thymus DNA (CT-DNA) using a modification of a reported procedure. Working solutions in aqueous buffer ([…] NaH2PO4/Na2HPO4, 1 mM Na2EDTA, pH 7.00+0.01). containing CT-DNA (100 μm in phosphate) and the PBD (20 μm) have been prepared by addition of concentrated PBD solutions in DMSO to obtain a fixed [PBD]/[DNA] molar ratio of 1:5. The DNA-PBD solutions have been incubated at 37° C. for 0 and 18 hrs prior to analysis. Samples have been monitored at 260 nm using a Beckman DU-800 spectrophotometer fitted with high performance temperature controller, and heated at 1° C. min^−1 in the 40-110° C. range. DNA helix→coil transition temperatures (Tm) have been obtained from the maxima in the d(A260)/dT derivative plots. Drug-induced alterations in DNA melting behavior are given by: ΔTm=Tm(DNA+PBD)−Tm(DNA alone), where the Tm value for the PBD-free CT-DNA is 68.5±0.01.
The DNA-binding for these novel C8-linked quinazolinone-PBD hybrids has been examined by thermal denaturation studies using calf thymus (CT) DNA. […] Data for 5b, 5c, 5d, and 5k, 5l, 5m and DC-81 are included in Table 5 for comparison.

[26] = system: SF-268; assay: NCI cytotoxicity (SRB, 48 h), SF-268; format: cell-based, human; settings: SF-268, CNS
Method: as §1

[27] = system: SN12C; assay: NCI cytotoxicity (SRB, 48 h), SN12C; format: cell-based, human; settings: renal
Method: as §1

COc1cc2c(cc1OCCCCCOc1ccc(-n3c(C)nc4ccccc4c3=O)cc1)N=C[C@@H]1CCCN1C2=O [5d, 7-methoxy-8-{5-[4-(2-methyl-4-oxo-3,4-dihydro-3-quinazolinyl)phenoxy]pentyloxy-}-(11aS)-1,2,3,11a-tetrahydro-5H-pyrrolo[2,1-c][1,4]benzodiazepine-5-one]
Log10 GI50 [1]: −6.66 mol/L | Log10 LC50 [1]: −4.90 | GI50 [2]: 0.42 µM | Log10 GI50 [3]: −6.59 mol/L | Log10 LC50 [3]: −5.02 | GI50 [4]: 0.12 µM | GI50 [5]: 0.23 µM | GI50 [6]: 0.19 µM | GI50 [7]: 0.35 µM | Log10 GI50 [8]: −6.59 mol/L | Log10 LC50 [8]: −5.49 | GI50 [9]: 0.23 µM | Log10 GI50 [10]: −6.85 mol/L | Log10 LC50 [10]: −5.30 | GI50 [11]: 0.39 µM | GI50 ([12]; bound over all sixty cell lines, read-out: GI50 value against sixty cell lines in nine cell panels): < 1.73 µM | Log10 GI50 mean graph midpoint (MG_MID) ([12]; human tumour cell lines): −6.63 | Log10 LC50 mean graph midpoint (MG_MID) ([12]; human tumour cell lines): −5.21 | Log10 TGI mean graph midpoint (MG_MID) ([12]; human tumour cell lines): −6.15 | GI50 [13]: 0.2 µM | GI50 [14]: 0.26 µM | GI50 [15]: 0.34 µM | GI50 [16]: 0.26 µM | GI50 [17]: 0.11 µM | GI50 [18]: 0.23 µM | GI50 [19]: 0.16 µM | Log10 GI50 [20]: −6.55 mol/L | Log10 LC50 [20]: −5.19 | GI50 [21]: 0.15 µM | GI50 [22]: 0.22 µM | GI50 [23]: 0.26 µM | Log10 GI50 [24]: −6.52 mol/L | Log10 LC50 [24]: −4.79 | ΔTm after incubation at 37° C. for 0 h ([25]; 0 h): 1.1 °C | ΔTm after incubation at 37° C. for 18 h ([25]; 18 h): 2.3 °C | GI50 [26]: 0.26 µM | GI50 [27]: 0.24 µM

From patent US8691811B2, “Quinazolinone linked pyrrolo[2,1-c][1,4]benzodiazepine hybrids as potential anticancer agents and process for the preparation thereof” (Council of Scientific & Industrial Research, priority 2008, dated 2014)
